Experiments:
[1] = system: Bovine aortic endothelial cells (BAEC); assay: Microvessel stability in collagen matrix; assay type: cell-based; settings: added after 24 hours of microvessel formation, read after additional 24 hours
Procedure: An experiment was performed to evaluate the effect of angiocidin on angiogenesis. Bovine aortic endothelial cells (BAEC) were plated on a collagen matrix. Next, the cells were over-layered with collagen. Angiocidin (37 μg/ml) was added on top of the cells in the treatment plate, and the control plate only received buffer. After 24 hours, phase contrast photomicrographs (200×) were taken. In the control plate, the BAEC cells rearranged themselves into a network of microvessels. […] The experiment in this example was performed as in Example 16, however, no treatment was given to the cells initially. After 24 hours, microvessels formed in both samples, and looked similar to the control plate in FIG. 19. Buffer and angiocidin were then added to the control and treatment plates, respectively. After an additional 24 hours, Hoffman interference photomicrographs were taken. Here, the control was not affected.

[2] = system: MCF7 human breast carcinoma cells (MCF7); assay: ALAMAR BLUE cell viability assay; assay type: cell-based; settings: 37 μg/ml, 24 hours
Procedure: (§1) Bovine aortic endothelial cells (BAEC), human umbilical vein endothelial cells (HUVEC), fibroblast cells, A549 human lung carcinoma cells (A549), MDA-MB231 human breast carcinoma cells (MB231), MCF7 human breast carcinoma cells (MCF7) were treated with 37 μg/ml of receptor, or buffer alone, for 24 hours. Viability of the cells was measured using the ALAMAR BLUE™ assay, which measures the capacity of cells to metabolize the ALAMAR BLUE™ dye. The ALAMAR BLUE™ assay (available from Biosource International, Camarillo, Calif.) quantitatively measures the proliferation of cell lines and can establish the relative cytotoxicity of chemical agents. The assay incorporates a fluorometric/colorimetric growth indicator based on detection of metabolic activity. The system incorporates an oxidation-reduction (redox) indicator that both fluoresces and changes color in response to chemical reduction of growth medium resulting from cell growth. This causes the redox indicator to change from its oxidized, non-fluorescent, blue form to its reduced, fluorescent, red form. Data can be collected using either fluorescence-based instrumentation (530-560 nm excitation wavelength and 590 nm emission wavelength) or absorbance-based instrumentation (570 nm and 600 nm).

[3] = system: MDA-MB231 human breast carcinoma cells (MB231); assay: ALAMAR BLUE cell viability assay; assay type: cell-based; settings: 37 μg/ml, 24 hours
Procedure: as §1

fibroblast cells = assay: ALAMAR BLUE cell viability assay; assay type: cell-based; settings: 37 μg/ml, 24 hours
Procedure: as §1

[4] = system: A549 human lung carcinoma cells (A549); assay: ALAMAR BLUE cell viability assay; assay type: cell-based; settings: 37 μg/ml, 24 hours
Procedure: as §1

[5] = system: Human Aortic Endothelial Cells (HAEC); assay: ALAMAR BLUE cell viability assay; assay type: cell-based; settings: Example 26
[6] = system: Bovine Smooth Muscle Cells (BSM); assay: ALAMAR BLUE cell viability assay; assay type: cell-based; settings: 0 to 37 μg/ml, 24 hours
Procedure: as §1, with “This causes the redox indicator to change from its oxidized, non-fluorescent, blue form to its reduced, fluorescent, red form.” left out
BAEC and BSM cells were treated with increasing concentrations of angiocidin (0, 0.625, 1.25, 2.5, 5, 15, 26 and 37 μg/ml) for 24 hours. Cell viability was measured using the ALAMAR BLUE Tm assay. […]

Lewis lung carcinoma [7] = assay: Growth of Lewis lung carcinoma flank tumors; assay type: in vivo, mice; settings: 50 μg IV on days 1, 3, 5
Description: Ten animals were subcutaneously injected in the flank with […] Lewis lung carcinoma cells. Evaluation of flank tumors is a well recognized model for angiogenesis, because flank tumors are highly dependent on angiogenesis. O'Reilly, M. S., Angiostatin: A Novel Angiogenesis Inhibitor that Mediates the Suppression of Metastasis by a Lewis Lung Carcinoma, Cell 79: 315-28 (1994). After 9 days when a palpable tumor developed, mice were divided into two groups of 5 animals per group. One group of 5 mice were treated with an IV injection of 50 μg of angiocidin in Hepes buffered saline. The control group was treated with Hepes buffered saline. Mice were treated on days 1, 3, and 5 after the groups were divided, and sacrificed on day 7.
The tumors were embedded in paraffin and cut into 5 micron sections. The sections were stained with hemotoxylin and eosin. Hemotoxylin stains DNA blue, and eosin stains protein pink. FIG. 36 illustrates the difference between control (panels A and C) and angiocidin (panels B and D) treated cells. Panels A and B are at a magnification of 400×under a light microscope and panels C and D are at a magnification of 200×under a light microscope.

Lewis lung carcinoma [8] = assay: Survival of mice bearing Lewis lung carcinoma (IV injected cells); assay type: in vivo; settings: 50 μg IV on days 1, 3, 5, 7, 9
Procedure: Ten mice were injected with one million Lewis lung carcinoma tumor cells in an IV injection. After 3 days of incubation, the mice were divided into two groups. One group of five mice were treated with an IV injection of 50 μg of angiocidin in Hepes buffered saline. The control group of five mice was treated with Hepes buffered saline. Mice were treated on days 1, 3, 5, 7, and 9.

[9] = system: MDA-MB-435 Breast Carcinoma Cells; assay: Cell adhesion to immobilized recombinant receptor; assay type: cell-based
Procedure: For the adhesion assay, in a 96 well plate, duplicate wells were covered with either TSP-1 (40 μg/ml), fibronectin (40 μg/ml), or and 1% bovine serum albumin (BSA). The wells were dried out overnight and then blocked with BSA. 100 μl of a suspension containing 2×10^5 cells were plated in the protein covered wells and incubated at 37^□ C. for 20 minutes to 1 hour. The non-adherent cells were removed and the wells were washed with a Hepes buffer. The adherent cells were fixed with 2.5% glutaraldehyde for 10 minutes and stained with 0.2% Giemsa. The stain was washed off and the cells were counted in a field of 1 mm square. Cells adhering to BSA were considered background while cells adhering to fibronectin were the positive control.
The method of Example 12 was followed except the whole receptor protein was immobilized on the plates, and cells transfected with either TSP-1 cDNA or a vector control were applied to the plates. The cells, which naturally express a low level of TSP-1, were transfected to over express the protein. […] Fibronectin and BSA were used as positive and negative controls, respectively, for cell adhesion. This evidence bolsters the theory that the receptor of the present invention binds to thrombospondin.
This specific interaction was confirmed by adding anti-TSP-1 antibodies, Anti-Cys-Ser-Val-Cys-Thr-Gly (SEQ ID NO: 1), and control IgG to the system.

[10] = system: Bovine aortic endothelial cells (BAEC); assay: Morphology of BAEC monolayer cultures; assay type: cell-based; settings: 0.37, 3.7, 37 μg/ml, 24 hours, serum-free medium with 1% BSA
Procedure: In this experiment, BAEC cells in monolayer cultures were plated for 24 hours in serum-free medium containing 1% BSA in the presence of increasing concentrations of angiocidin (control=none, 0.37 μg/ml, 3.7 μg/ml, 37 μg/ml). Hoffman interference microscopy (100×) was used to photograph the cells.

Substance: angiocidin: Cys-Ser-Val-Thr-Cys-Gly (SEQ ID NO: 1)-specific thrombospondin (TSP-1) receptor protein; recombinant form of SEQ ID NO: 2 used in the Examples
- stability of formed microvessels [1]: disrupted the microvessels that had already formed
- cell viability [2]: No significant difference
- cell viability [3]: No significant difference
- cell viability (fibroblast cells): No significant difference
- cell viability [4]: No significant difference
- cell viability [5]: negative effect on the viability of both cell lines
- cell viability [6]: unaffected
- tumor histology (hemotoxylin and eosin) (Lewis lung carcinoma [7]): significant necrosis and cell death
- tumor growth (relative tumor volumes) (Lewis lung carcinoma [7]; 7 day treatment period): grew only slightly and at a linear rate
- flank tumor size (Lewis lung carcinoma [7]; sacrificed day 7): much smaller than the control mice
- median survival period (Lewis lung carcinoma [8]): 19 days
- inhibition of cell adhesion to receptor bound to the plate by unbound receptor ([9]; nontransfected, naturally TSP-1 expressing cells, FIG. 17): reduced the adhesion of the cells to the plate
- adhesion of TSP-1 cDNA transfected cells to plates with receptor protein relative to control cell line ([9]; p<0.001): 2.5 times
- cell morphology [10]: elongated, detached from the plate, aggregated, and died
